The values that follow come from patent US9056048B2, “Synthesis and use of cationic steroids for anti-inflammatory drug therapy” (priority 2001, dated 2015).

Series [1] relates to GRE promoter construct (pGRE-SEAP). Description: Induction of transcription from GRE (GRE-SEAP promoter construct) in 293 cells. The format is cell-based. The procedure:
293 cells were lipofected with GRE-SEAP plasmid in triplicate using 1 μg plasmid and 6 μg Lipofectamine per well in 24-well plates. […] After 24 hr of induction, 50 μl aliquots of growth media were analyzed for alkaline phosphatase activity using the SEAP fluorogenic assay following the manufacturer's instructions.

The test system of a further series is mouse lung. The experiment in a line: AAV vectors co-formulated with DS or DS/D2S, intranasal instillation. The format is in vivo, C57Bl/6 mice. The procedure: Cationic liposomes (DS/D2S) in a 1:1 mole ratio with DOPE (51 μg total lipid) were mixed with AAV (10^11 GC/dose) in equal volume at room temperature for 15 minutes prior to instillation. C57Bl/6 mice (6 to 8 weeks of age) were anesthetized by an i.p. injection of a 3:2 mixture of xylazil:ketamine. For dosing, mice were suspended from their dorsal incisors (hind quarters supported) and a dose of 10^11 GC of AAV vector was delivered as a 50 μl bolus into the nostrils.
To evaluate luciferase transgene expression, 250 μl of a 15 mg/ml luciferin solution (Caliper Life Sciences, Hopkinton, Mass.) was injected per 25 gram body mass by i.p. injection. Five minutes after luciferin injection the mice were anesthetized by an i.p. injection of a 3:2 mixture of xylazil:ketamine. Animals were imaged 15 minutes after the original luciferin injection with a high sensitivity CCD Xenogen IVIS bioluminescent imaging system (Caliper Life Sciences).
For lacZ transgene expression evaluation, lungs were harvested and inflated with a 1:1 mixture of PBS and OCT embedding compound. One lobe was then submerged in OCT, frozen in isopentane cooled with liquid nitrogen, and cryosectioned ([…]). Sections were fixed in 0.5% glutaraldehyde in PBS (Electron Microscopy Sciences, Hatfield, Pa.) for 10 minutes (4° C.) and then washed twice in PBS/1 mM MgCl2 (4° C.) and stained with X-gal substrate (5-bromo-4-chloro-3-indoyl-β-D-galactopyranoside) for 16 hours at 37° C. to reveal LacZ-positive cells. After being washed in PBS, sections were counterstained with nuclear fast red, dehydrated through a graded ethanol series and xylene, coverslipped, and imaged. The other lobe was placed in 2 ml of Lysis Buffer (Roche, Indianapolis, Ind.) and placed on ice. Directly after all samples were collected, each sample was homogenized for approximately 10 seconds. […] A mouse β-galactosidase enzyme-linked immunosorbent assay (ELISA) (Roche) was used on lung homogenates according to the manufacturer's instructions to quantitatively measure LacZ gene expression. […]

The nature of series [2]: Hyaluronic acid release assay (dialysis). The procedure: Hyaluronic acid sodium salt (Rooster Comb HA; Sigma) was diluted in PBS at 1 mg/ml to mimic an anionic glycosaminoglycan at a nominal interstitial concentration.
A further series deals with osteoblasts. Description: In vitro bone culture inflammatory model, qRT-PCR transcripts. The conditions noted are these: for reduction in IL-6 transcripts over control: qRT-PCR normalized to GAPDH; for OPG/RANKL ratio: transcripts, qRT-PCR. The format is cell-based, murine.
Series [3] has as its system neutrophils in the i.p. space. Description: Thioglycollate (TG) model of inflammation. The format is in vivo, BALB/c mice. The procedure: Male, 6- to 8-week-old (20 g) BALB/c mice, six per group, were used. […] After 30 minutes, mice were injected i.p. with 1.5 mL of 3% TG in PBS containing 1% ethanol. At 4 hour post-TG, the i.p. fluid was collected and neutrophils were counted.

A further series can be described thus: physchem. As to conditions: water.
The subject of series [4] is bovine aortic endothelial cells. The experiment in a line: Lipofection of BAEC with EGFP plasmid. As to conditions: alone, unconjugated. The format is cell-based.
Method: Bovine aortic endothelial cells (BAEC, passage 4-13) were passaged at a 1:3 split to 24-well culture plates, and then grown to dense confluence before lipofection. Growth medium was Dulbecco's modified Eagle's medium (DMEM) containing 10% heat inactivated charcoal-filtered (to remove steroid hormones) fetal calf serum (Hyclone), 0.30 mg/ml glutamine, 150 U/ml penicillin, and 0.15 mg/ml streptomycin (Gibco). 293 cells were grown under identical conditions. The plasmids pEGFP-N3 and pGRE-SEAP (Clontech) were used for expression of EGFP or secreted alkaline phosphatase under the regulation of CMV or GRE promoters, respectively. […] In other experiments, Lipofectamine 2000 (Invitrogen), in a 1:1 (wt) ratio with nucleic acid, was used according to the manufacturer's instructions.
For fluorescence microscopy and flow cytometry, pEGFP-N3 plasmid (Clontech, Palo Alto, Calif.) was used to generate GFP as the fluorescent reporter transgene protein. Cells were transfected in 6-well plates with each condition in duplicate. One day after GFP transfection, cells were imaged and then harvested in 500 ul PBS and kept on ice until analysis. A BD Biosciences (Franklin Lakes, N.J.) FACSCalibur flow cytometer was used to obtain fluorescence data with 50,000 counts recorded per condition.
EGFP expression was calibrated using 0 to 200 ng recombinant GFP (Clontech) in 750 μl PBS. […]
The test system of a further series is mouse lungs. The experiment in a line: AdV vector formulated with lipid, intranasal delivery to mouse lungs. The format is in vivo, C57Bl/6 mice. As to conditions: day 7. The arrangement: key: 0 (normal, no inflammation); mild (+) monocytic infiltrate and congestion; +++ (extensive inflammation).

In brackets after ≈: the same amount, converted by molar mass. A value given as a limit tells only on which side of the number the result lay.

From the text for mouse lungs: E1/E3-deleted replication-deficient, recombinant adenovirus vectors (2-4.5×10^12 GC/ml stock) expressing either a LacZ or a AlkP reporter were created as previously described in Gao et al. (1996, J. Virol. 70:8934-8943) by homologous recombination between the shuttle plasmid that carries the transgene and the 5′ end of the adenovirus genome with E1 deleted and 3′ end of H5.sub360 in which the E3 gene was inactivated by a small deletion. The recombinant viruses were propagated in 293 cells and purified by the standard CsCl gradient sedimentation method. The replication-deficient AAV2/5CBntLacZ contains the LacZ gene with a nucleus localization sequence at its N-terminus, under the transcriptional control of the chicken h-actin promoter. The AAV (2/5) vector (˜2×10^12 GC/ml stock) was produced by transcapsidation in 293 cells using a triple transfection method and purified by CsCl gradient sedimentation as described in Gao et al. (2002, Proc. Natl. Acad. Sci. USA 99:11854-11859).
C57Bl/6 mice (6 to 8 weeks of age) were anesthetized by an i.p. injection of a 3:2 mixture of xylazil (20 mg/ml):ketamine (100 mg/ml). For dosing, mice were suspended from their dorsal incisors (hind quarters supported) and a dose of 10^11 GC of AdV or AAV vector was delivered as a 50-μl bolus into the nostrils using a gel-loading tip (Finnpippette). […]
Method for osteoblasts: For co-cultures with osteoblasts, bone marrow cells (1×10^5 cells/well in 96-well plates) were co-cultured with calvarial osteoblasts (1×10^4 cells/well) in α-minimal essential medium containing 10% fetal bovine serum and supplemented with 20 nM 1α, 25(OH)2D3 and 1 μM prostaglandin E2 (PGE2) for 9 days. […] Co-cultures treated with Vitamin D3 (VitD3) were treated at 20 nM.
For transcript analysis, total RNA was isolated using the Absolutely RNA microprep kit (Stratagene, La Jolla, Calif.). RNA was reverse transcribed using Superscript III reverse transcriptase and oligo(dT) (Invitrogen, Carlsbad, Calif.), and complementary DNA was purified using Qiagen's PCR purification kit (Valencia, Calif.). Complementary DNA from untreated samples was used for optimizing PCR conditions, with primers targeting the gene of interest. For the gene RANKL, the forward primer was 5′-[sequence]-3′ and the reverse primer was 5′-[sequence]-3′, for the OPG gene the forward primer was 5′-[sequence]-3′ and the reverse primer was 5′-[sequence]-3′, for the IL-6 gene the forward primer was 5′-[sequence]-3′ and the reverse primer was 5′-[sequence]-3′. In order to normalize the expression levels, GAPDH was used as a housekeeping gene with forward primer 5′-[sequence]-3′ and reverse primer 5′-[sequence]-3′. A standard curve was created using the untreated controls and the optimized PCR conditions for each set of primers on a Roche LightCycler 480 (Indianapolis, Ind.). Quantitative real-time PCR was performed using the LightCycler FastStart DNA MasterPLUS SYBR Green I kit with melting curve analysis provided by the LightCycler software.
TNF-α is utilized as an inflammatory cytokine to initiate the NF-κB pathway and subsequent effect on RANKL.

On to `CC1C[C@H]2[C@@H]3CCC4=CC(=O)C=C[C@]4(C)[C@@]3(F)C(O)C[C@]2(C)[C@@]1(O)C(=O)CSCCCC(=N)NCCCNCCCCNCCCN.O=C(O)C(F)(F)F` (stereo partly drawn) [DS, N-[3-({4-[(3-aminopropyl)amino]butyl}amino)propyl]-4-[(9-fluoro-11,17-dihydroxy-16-methyl-3,20-dioxopregna-1,4-dien-21-yl)sulfanyl]butanimidamide-TFA Salt], for which the “SEAP transcription from GRE promoter” value in series [1] (100 nM, 293 cells) is “statistically significant levels of SEAP transcription”. Also, the EC50 in series [1] (Homo sapiens, HEK293, read-out: EC50 of transcription from GRE promoter construct (pGRE-SEAP)) was in the range of 10 to 100 nM. Moreover, the “lacZ transgene level in lung homogenate compared to control” value in the series with mouse lung (AAV2/6.2, ELISA, day 28) is “higher average transgene levels”. The “luciferase luminescence in the lung” value in the series with mouse lung (AAV2/9, day 28) is “minimal luminescence in the lung”. Besides, the “LacZ gene expression versus AAV2/9-LacZ alone (readministered control)” value in the series with mouse lung (day 56, formulation at day 0, re-administration day 28) is 2 fold. In addition, the “fraction eluted from HA” value in series [2] (24 hour period) is reported as “only a small fraction”. In series [2] (in PBS), the “half-life for dissociation from HA” value amounted to 56 h. Further, in series [2] (physiological salt buffer), the “time remaining tightly bound to HA” value is given as “over 24 hours”. In the series on osteoblasts, the “reduction in IL-6 transcripts over control” value was 17% and the OPG/RANKL ratio was 1.67. Further, the “reduction in neutrophil immigration versus vehicle” value in series [3] (5.85 mg/kg i.p. 30 minutes before TG, 4 hour post-TG) is 60%. For the same compound, in series [3] (tested dose 5.85 mg/kg i.p.), the lethality result is on record as “not lethal”. In “physchem”, this compound registered a solubility of more than 100000 µg/mL.
With `NCCCNCCCCNCCCN` [Spermine, spermine], the gene transfer activity result in series [4] is “no detectable gene transfer activity”.
With TNF-α, the OPG/RANKL ratio with osteoblasts is on record as 0.12.
Consider `C[C@@H]1C[C@H]2[C@@H]3CCC4=CC(=O)C=C[C@]4(C)[C@@]3(F)[C@@H](O)C[C@]2(C)[C@@]1(O)C(=O)CO` [dexamethasone, reference compound], for which, in the series with mouse lungs, the “lung inflammation score by blinded pathologist” value turned out to be 0. For the same compound, the “reduction in IL-6 transcripts over control” value with osteoblasts was 72%. The solubility in “physchem” was determined as 100 µg/mL (≈ 255 µM).
